Results published in patent publication US20150216925A1, “AGENT FOR PREVENTING OR AM[…] ENDOTHELIAL MALFUNCTION” (KYOWA HAKKO BIO CO., LTD., priority 2012, published 2015).

Tested on: normal human umbilical vein endothelial cell (HUVEC)
Assay: NO production (nitrite in culture supernatant) in HUVEC, HPLC
Assay type: cell-based
Conditions: 24-hour culture, FIG. 1
Experimental: A normal human umbilical vein endothelial cell (HUVEC) line available from Clonetics (SanDiego, Calif., USA) was used with EGM-2 Bullet Kit medium containing 2% FBS (Takara Bio). The cells were cultured in at 37° C., in 5% CO2 incubator, and used for experiment after 4 to 6 passages. Citrulline and reduced glutathione were obtained from Kyowa Hakko Bio.
A cell suspension (0.45 mL) with the adjusted initial cell concentration of 5×10^5 cells/mL was inoculated in a 24-well plate (IWAKI). After 40-hour culture, the media were replaced with those containing citrulline (final concentration 0.3 mM: citrulline group), reduced glutathione (final concentration 1 mM: high-dose glutathione group), and a citrulline and reduced glutathione mixture (citrulline final concentration 0.3 mM; glutathione final concentration 0.3 mM: citrulline+low-dose glutathione group). Media with the sole addition of solvent (PBS) were used as a control group. After 24-hour culture, the cell culture (100 μL) was centrifuged at 12,000 rpm for 10 minutes, and the concentration of nitrite (NO2), which is the stable NO metabolite, in culture supernatant was quantified by HPLC (ENO-20, EICOM).

N[C@@H](CCC(=O)N[C@@H](CS)C(=O)NCC(=O)O)C(=O)O [glutathione, γ-L-Glu-L-Cys-Gly]
effect on NO production (nitrite NO2 concentration in medium) (reduced glutathione final concentration 1 mM (high-dose)): no effect

NC(=O)NCCC[C@H](N)C(=O)O [citrulline, L-citrulline]
effect on NO production (nitrite NO2 concentration in medium) (citrulline final concentration 0.3 mM): no effect
